Experimental data reported in the NIST ThermoML archive (doi:10.1021/je200799u).
Numbers after ± are expanded uncertainties.

Experiment: refractive index (Na D-line) (dimensionless)
Conditions: 298.15 K; 101.33 kPa; Liquid; Standard Abbe refractometry

Row | Compound | refractive index
1 | CC(=O)[O-].C[NH2+]CCO [N-methyl-2-hydroxyethylammonium acetate] | 1.4584 ± 0.0012
2 | CCCC(=O)[O-].C[NH2+]CCO [N-methyl-2-hydroxyethylammonium butanoate] | 1.4555 ± 0.0012
3 | CCCCCC(=O)[O-].C[NH2+]CCO [N-methyl-2-hydroxyethylammonium hexanoate] | 1.4563 ± 0.0012
4 | CCCCCCCCCCCC [dodecane] | 1.4196 ± 0.0007
